Results from patent publication US20150057366A1, “SYNTHESIS OF ELEMICIN AND TOPICAL ANALGESIC COMPOSITIONS” (priority 2012, published 2015).

Assay: Preliminary work by the applicant on topical analgesic effectiveness of elemicin compositions
Format: in vivo

Structure (SMILES) | elemicin content compositions require to start being effective as topical analgesics (topical composition, 30% more preferred, preliminary work) | analgesic effectiveness at the concentrations occurring in natural oils (topical, around 2.4-3.0% in nutmeg and manila elemi oils, up to around 10-14% in mace and some elemi oil) | effectiveness in analgesic compositions (topical analgesic compositions, work thus far by the inventor)
C=CCc1cc(OC)c(OC)c(OC)c1 [elemicin, 1,2,3-Trimethoxy-5-prop-2-enylbenzene] | at least 20% | analgesic effectiveness does not occur at such low doses | –
C/C=C/c1cc(OC)c(OC)c(OC)c1 [iso-elemicin] | – | – | also effective
